Test results: patent US20060135569A1, “Use of benzisoselenazolone compounds against ischemic myocardial damage” (priority 2002, published 2006)
Marks after values point to notes of the source that are not given here.

How the values were obtained:
Na^+/Ca^2+ exchanger = target: T1, Na^+/Ca^2+ exchanger (Cavia porcellus, UniProt P48766); assay: Na^+/Ca^2+ exchange current (INa—Ca), whole-cell patch clamp, intracellular Na^+ overload cell model; format: cell-based, guinea pig
T1 construct: endogenous in cells; host or cells: freshly isolated guinea pig ventricular myocytes
How it was run: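 Whole-cell patch clamp on guinea pig ventricular myocytes, Na⁺-loaded via pipette dialysis; holding −40 mV, step to +60 mV, ramp down at 80 mV·s⁻¹ to −100 mV, 0.05 Hz. K⁺, L-type Ca²⁺ and Na⁺/K⁺-ATPase blocked; INa–Ca taken as 5 mmol·L⁻¹ Ni²⁺-sensitive current.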

TA97; TA98; TA100; TA102 = assay: Ames (mutagenesis) test, overall result in 4 strains; format: cell-based; settings: 0.5, 5, 50 and 500 μg/dish
Method: (§1) To assess the mutagenic effects of 5 compounds (IMM-004; IMM-065; IMM-127; IMM-128; IMM-313), the Ames test was performed in 4 strains (TA97; TA98; TA100; TA102). The experiment was conducted with compounds at 4 concentration levels (0.5, 5, 50 and 500 μg/dish). […]

TA97 = assay: Ames test, strain TA97; format: cell-based
Method: as §1

TA100 = assay: Ames test, strain TA100; format: cell-based
Method: as §1

KM mice = assay: Acute toxicity study in mice; format: in vivo
Method: Acute toxicity studies were performed with IMM-004 and IMM-127 (synthesized by ourselves). The compound was provided as powder, which was milled and suspended in 0.5% carboxymethylcellulose sodium (CMC—Na) before use.
Male KM mice weighting 19±2 g were housed for an adaptation before use. Mice were randomly divided into groups, and each group consists of 10 animals. Mice were all fasted for 14 hrs before the administration of the tested compounds. Activity of mice in high dose group was reduced 30 min after the administration. 24 h after the administration, mice in each group were restored to normal. Mice were observed daily for a period of 7 days after the administration.

[1] = Example 1 table, myocardial cell
[2] = screening of 22 candidate compounds

Structure (SMILES): O=c1c2cc(Cl)ccc2[se]n1-c1ccccn1 [IMM-004, 5-chloro-2-(2-pyridyl)-1,2-benz-isoselenazol-3(2H)-one]
- Inhibitory rate of inward INa—Ca (%) (Na^+/Ca^2+ exchanger; [1]): 44%
- Inhibitory rate of outward INa—Ca (%) (Na^+/Ca^2+ exchanger; [1]): 52%
- Inhibitory rate of inward INa—Ca (%) (Na^+/Ca^2+ exchanger; [2]): 44%
- Inhibitory rate of outward INa—Ca (%) (Na^+/Ca^2+ exchanger; [2]): 52* %
- mutagenic effect (Ames test) (TA97; TA98; TA100; TA102): No evidence for a mutagenic effect
- TA97 +S9 (TA97; 0.5 μg/dish): 55.33 ± 24.36
- TA97 −S9 (TA97; 0.5 μg/dish): 54.33 ± 4.78
- TA97 +S9 (TA97; 5 μg/dish): 80.67 ± 8.58
- TA97 −S9 (TA97; 5 μg/dish): 54.67 ± 4.99
- TA97 +S9 (TA97; 50 μg/dish): 204.67 ± 29.41
- TA97 −S9 (TA97; 50 μg/dish): 47.00 ± 5.72
- TA97 +S9 (TA97; 500 μg/dish): 67.33 ± 36.59
- TA97 −S9 (TA97; 500 μg/dish): 55.50 ± 3.50
- TA100 +S9 (TA100; 0.5 μg/dish): 191.33 ± 44.25
- TA100 −S9 (TA100; 0.5 μg/dish): 121.00 ± 8.52
- TA100 +S9 (TA100; 5 μg/dish): 215.33 ± 23.68
- TA100 −S9 (TA100; 5 μg/dish): 58.33 ± 29.39
- TA100 +S9 (TA100; 50 μg/dish): 126.00 ± 31.79
- TA100 −S9 (TA100; 50 μg/dish): 89.67 ± 14.70
- TA100 +S9 (TA100; 500 μg/dish): 160.00 ± 21.33
- TA100 −S9 (TA100; 500 μg/dish): 78.33 ± 13.52
- mortality in the dose groups (KM mice; all dose groups, mice): no mortality

Structure (SMILES): O=c1c2cc(F)ccc2[se]n1-c1ccccn1 [IMM-127, 5-fluoro-2-(2-pyridyl)-1,2-benz-isoselenazol-3(2H)-one]
- Inhibitory rate of inward INa—Ca (%) (Na^+/Ca^2+ exchanger; [1]): 21%
- Inhibitory rate of outward INa—Ca (%) (Na^+/Ca^2+ exchanger; [1]): 43%
- Inhibitory rate of inward INa—Ca (%) (Na^+/Ca^2+ exchanger; [2]): 21%
- Inhibitory rate of outward INa—Ca (%) (Na^+/Ca^2+ exchanger; [2]): 43* %
- mutagenic effect (Ames test) (TA97; TA98; TA100; TA102): No evidence for a mutagenic effect
- TA97 +S9 (TA97; 0.5 μg/dish): 60.67 ± 3.86
- TA97 −S9 (TA97; 0.5 μg/dish): 60.00 ± 8.16
- TA97 +S9 (TA97; 5 μg/dish): 59.67 ± 8.18
- TA97 −S9 (TA97; 5 μg/dish): 56.67 ± 13.27
- TA97 +S9 (TA97; 50 μg/dish): 68.50 ± 2.50
- TA97 −S9 (TA97; 50 μg/dish): 60.33 ± 3.77
- TA97 +S9 (TA97; 500 μg/dish): 48.00 ± 2.16
- TA97 −S9 (TA97; 500 μg/dish): 57.33 ± 6.94
- TA100 +S9 (TA100; 0.5 μg/dish): 95.00 ± 10.23
- TA100 −S9 (TA100; 0.5 μg/dish): 83.00 ± 14.14
- TA100 +S9 (TA100; 5 μg/dish): 102.67 ± 21.06
- TA100 −S9 (TA100; 5 μg/dish): 62.00 ± 10.80
- TA100 +S9 (TA100; 50 μg/dish): 100.00 ± 6.16
- TA100 −S9 (TA100; 50 μg/dish): 67.67 ± 22.05
- TA100 +S9 (TA100; 500 μg/dish): 100.67 ± 4.49
- TA100 −S9 (TA100; 500 μg/dish): 72.33 ± 23.67
- Lethal cases (KM mice; 5 g/kg, 10 mice per group, 7 days observation): 7
